Experimental data as given in patent publication US20230295259A1 (Protagonist Therapeutics, Inc., priority 2020, published 2023).
Starred links: 1 amine or outer side, 2 acyl side, 3 side chain; linkers in the order of their positions; H or OH if unused. Positions of bridges follow the written chain, without caps; N, C: chain ends. Non-standard residues stand in square brackets, D forms with d. Residues, ends and D or L forms follow the SMILES beside them. Groups on a side chain read outwards from the residue. ξ: configuration not given here. *: point of attachment. C18 diacid = O=C(O)CCCCCCCCCCCCCCCCC(=O)*; Dip = N[C@H](C(=O)O)C(c1ccccc1)c1ccccc1; X9 = O=C([C@@H](N[*:1])SC[*:3])[*:2]; Aic = NC1(C(=O)O)Cc2ccccc2C1; ξIle = CC[C@H](C)C(N)C(=O)O; Isovaleryl = CC(C)CC(=O)*; Dap = NC[C@H](N)C(=O)O; AEEA = NCCOCCOCC(=O)O

molecular target: T1, human ferroportin (Homo sapiens, UniProt Q9NP59); test: FPN activity assay: internalization/degradation of ferroportin-GFP in stably transfected HEK293 cells (decrease in GFP fluorescence); assay type: cell-based; conditions: Table 2A; HEK293 cells expressing human ferroportin-GFP, at least 18 hours incubation
T1 construct: expressed in transfected cells
T1 sequence (Q9NP59 1-571): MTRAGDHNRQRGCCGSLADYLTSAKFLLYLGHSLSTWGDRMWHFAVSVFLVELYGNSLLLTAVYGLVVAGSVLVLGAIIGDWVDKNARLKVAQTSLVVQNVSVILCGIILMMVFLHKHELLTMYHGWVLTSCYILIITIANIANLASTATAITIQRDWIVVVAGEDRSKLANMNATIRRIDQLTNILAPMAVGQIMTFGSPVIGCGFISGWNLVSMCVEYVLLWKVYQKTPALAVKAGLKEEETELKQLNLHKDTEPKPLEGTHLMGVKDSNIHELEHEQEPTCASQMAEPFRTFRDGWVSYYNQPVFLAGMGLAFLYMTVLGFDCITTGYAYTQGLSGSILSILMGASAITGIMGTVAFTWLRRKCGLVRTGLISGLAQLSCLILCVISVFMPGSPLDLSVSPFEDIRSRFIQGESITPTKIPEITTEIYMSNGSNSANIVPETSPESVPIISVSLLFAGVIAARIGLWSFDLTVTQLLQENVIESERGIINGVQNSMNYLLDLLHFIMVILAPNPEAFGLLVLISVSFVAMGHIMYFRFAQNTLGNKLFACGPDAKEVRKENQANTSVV
Procedure: Following internalization, the ferroportin protein is degraded.
A retro inverse peptide is a peptide with a reversed sequence in all D amino acids. An example is that Hy-Glu-Thr-His-NH2 becomes Hy-DHis-DThr-DGlu-NH2. The EC50 of these reference compounds for ferroportin internalization/degradation was determined according to the FPN activity assay described above. These peptides served as control standards.
These values were determined as described herein.

Row | EC50 [µM] | Compound
1 | 0.103 | Isovaleric Acid-E-T-H-[Dpa]-P-[Cys]-I-[Lys(Ahx_PEG20K)]-[bhPhe]-R-[Cys]-NH2 [Compound 51]
2 | > 3 | Isovaleric Acid-E-T-H-[Dpa]-P-[Cys]-I-[Lys(Ac)]-[bhPhe]-[Lys(2Peg20K)]-R-[Cys]-NH2 [Compound 46]
3 | 0.00331 | Isovaleric Acid-E-T-H-[Dpa]-P-[Cys]-I-[Lys(2Peg20K)]-[bhPhe]-[Lys(2Peg11′_Palm)]-R-[Cys]-NH2 [Compound 50]

same assay, conditions: Table 2B; HEK293 cells expressing human ferroportin-GFP, at least 18 hours incubation

Row | EC50 [µM] | Compound
4 | 0.357 | Isovaleric Acid-E-T-H-[Dpa]-P—C—I-[Lys(1PEG2_1PEG2_Ahx_Palm)]-[bhPhe]-[(D)Lys(PEG20K-C—NH2 [Compound 314]
5 | 1.36 | Isovaleric Acid-E-T-H-[Dpa]-P—C—I-[Lys(1PEG2_1PEG2_Ahx_C18_Diacid)]-[bhPhe]-[(D)Lys(PEG40KB-C—NH2 [Compound 297]

same assay, conditions: Table 2D (Illustrative Monomer Hepcidin Analogues); ferroportin-GFP HEK293 cells; read-out: IC50: FPN internalisation

Row | DC50 [µM] | Compound
6 | 0.0313 | CC[C@H](C)C1NC(=O)[C@@H](NC(=O)[C@@H]2CCCN2C(=O)[C@@H](NC(=O)[C@H](Cc2cnc[nH]2)NC(=O)[C@@H](NC(=O)[C@H](CCC(=O)OC)NC(=O)CC(C)C)[C@@H](C)O)C(c2ccccc2)c2ccccc2)SCSC[C@@H](C(N)=O)NC(=O)[C@@H](CCCCN)NC(=O)C2(Cc3ccccc3C2)NC(=O)[C@H](CCCCNC(=O)COCCOCCNC(=O)COCCOCCNC(=O)[C@H](CN)NC(=O)CCCCCCCCCCCCCCCCC(=O)O)NC1=O (stereo partly drawn) [Compound 506] (Isovaleryl-E(OMe)TH[Dip]P[X9][ξIle]K([AEEA-AEEA-Dap-C18 diacid])[Aic][dK]C-NH2; thioether 6-11)
7 | 0.0374 | COC(=O)CC[C@H](NC(=O)CC(C)C)C(=O)N[C@H](C(=O)N[C@@H](Cc1cnc[nH]1)C(=O)N[C@H](C(=O)N1CCC[C@H]1C1CSSC[C@@H](C(N)=O)NC(=O)[C@@H](CCCCN)NC(=O)C[C@H](Cc2ccccc2)NC(=O)[C@H](CCCCNC(=O)COCCOCCNC(=O)COCCOCCNC(=O)[C@H](CN)NC(=O)CCCCCCCCCCCCCCCCC(=O)O)NC(=O)C2(CCCCC2)NC1=O)C(c1ccccc1)c1ccccc1)[C@@H](C)O (stereo partly drawn) [Compound 512]

tested on: LAD2 cells; test: not given; assay type: cell-based, human; conditions: not given
From the text: In anaphylactoid reactions, the main mechanism involves the direct stimulation of mast cells or basophils, leading to the release of anaphylactic mediators such as histamine and β-hexosaminidase. A recent study by McNeil et al. (McNeil B D et al., 2015) reported that MrgprX2, a specific membrane receptor on human mast cells, induces anaphylactoid reactions. The LAD2 (Laboratory of Allergic Diseases 2) human mast cell line, derived from human mast cell sarcoma/leukemia (Kirshenbaum et al., 2003), is commonly employed to study anaphylactoid reactions, because its biological properties are identical to those of primary human mast cells, including the overexpression of the MrgprX2 receptor and sensitivity towards degranulating peptides (Kulka et al., 2008). The release of anaphylactic mediators such as f-hexosaminidase, is assessed by fluorometric quantification.
On the day of the assay, serial dilutions of compounds were added to LAD2 cells plated at 20000 cells/well in a 96-well plate. After incubation for 30 minutes, the amount of β-hexosaminidase released into the supernatants and in cell lysates was quantified using the fluorogenic substrate 4-methylumbelliferyl-N-acetyl-b-D-glucosaminide. Dose-response curves were generated by plotting the % of β-hexosaminidase release (y-axis) against the concentrations of peptides tested (x-axis). […]. (Table 2D).

Row | EC50 [µM] | Compound
8 | > 100 | CC[C@H](C)[C@@H]1NC(=O)[C@@H](NC(=O)[C@@H]2CCCN2C(=O)[C@@H](NC(=O)[C@H](Cc2cnc[nH]2)NC(=O)[C@@H](NC(=O)[C@H](CCC(=O)O)NC(=O)CC(C)C)[C@@H](C)O)C(c2ccccc2)c2ccccc2)CSSCC(C(N)=O)NC(=O)[C@@H](CCCCNC(=O)CCOCCOCCOCCOCCOCCOCCOCCOCCOCCOCCOCCOC)NC(=O)C[C@H](Cc2ccccc2)NC(=O)[C@H](CCCCNC(=O)COCCOCCNC(=O)COCCOCCNC(=O)CCCCCNC(=O)CCCCCCCCCCCCCCCCC(C)=O)NC1=O (stereo partly drawn) [Compound 255, Isovaleric Acid-E-T-H-[Dpa]-P—C—I-[Lys(1PEG2_1PEG2_Ahx_C18_Diacid)]-[bhPhe]-[(D)Lys(PEG11_OMe)]—C—NH2]
9 | > 33 | CC[C@H](C)[C@@H]1NC(=O)[C@@H](NC(=O)[C@@H]2CCCN2C(=O)[C@@H](NC(=O)[C@H](Cc2cnc[nH]2)NC(=O)[C@@H](NC(=O)[C@H](CCC(=O)O)NC(=O)CC(C)C)[C@@H](C)O)C(c2ccccc2)c2ccccc2)CSSC[C@@H](C(N)=O)NC(=O)[C@@H](CCCCN)NC(=O)C[C@H](Cc2ccccc2)NC(=O)[C@H](CCCCNC(=O)COCCOCCNC(=O)COCCOCCNC(=O)CC[C@H](NC(=O)CCCCCCCCCCCCCCCCC(=O)O)C(=O)O)NC1=O [Compound 107, Isovaleric Acid-E-T-H-[Dpa]-P-[Cys]-I-[Lys(1Peg2_1Peg2_IsoGlu_C18_Diacid)]-[bhPhe]-[(D)Lys]-[Cys]-NH2]
10 | > 100 | CCCCCCCCCCCCCCCC(=O)NCCCCCC(=O)NCCCC[C@@H]1NC(=O)C[C@H](Cc2ccccc2)NC(=O)[C@@H](CCCCNC(=O)CCOCCOCCOCCOCCOCCOCCOCCOCCOCCOCCOCCOC)NC(=O)[C@H](C(C)CC)NC(=O)C(NC(=O)[C@@H]2CCCN2C(=O)[C@@H](NC(=O)[C@H](Cc2cnc[nH]2)NC(=O)[C@@H](NC(=O)[C@H](CCC(=O)O)NC(=O)CC(C)C)[C@@H](C)O)C(c2ccccc2)c2ccccc2)CSSC[C@@H](C(N)=O)NC(=O)[C@@H](CCCCNC(=O)CCOCCOCCOCCOCCOCCOCCOCCOCCOCCOCCOCCOC)NC1=O (stereo partly drawn) [Compound 19, Isovaleric Acid-E-T-H-[Dpa]-P-[Cys]-I-[(D)Lys(2Peg11′_OMe)]-[bhPhe]-[Lys(Ahx_Palm)]-[(D)Lys(2Peg11′_OMe)]-[Cys]-NH2]
11 | 27 | CC[C@H](C)C1NC(=O)[C@@H](NC(=O)[C@@H]2CCCN2C(=O)[C@@H](NC(=O)[C@H](Cc2cnc[nH]2)NC(=O)[C@@H](NC(=O)[C@H](CCC(=O)O)NC(=O)CC(C)C)[C@@H](C)O)C(c2ccccc2)c2ccccc2)CSSC[C@@H](C(N)=O)NC(=O)[C@@H](CCCCN)NC(=O)C[C@H](Cc2ccccc2)CC(=O)C(CCCCNC(=O)CCOCCOCCOCCOCCOCCOCCOCCOCCOCCOCCOCCOCCNC(=O)CCCCCCCCCCCCCCCCC(=O)O)NC1=O (stereo partly drawn) [Compound 113, Isovaleric Acid-E-T-H-[Dpa]-P-[Cys]-I-[Lys(2Peg11′_C18_Diacid)]-[bhPhe]-[(D)Lys]-[Cys]-NH2]

same assay, conditions: LAD2 mast cells, β-hexosaminidase release, 30 minutes incubation; read-out: EC50: LAD2

Row | Compound | EC50 [µM]
12 | Isovaleric Acid-E-T-H-[Dpa]-P—C—I-[Lys(PEG12_IsoGlu_C18_Diacid)]-[bhPhe]-[(D)Lys(PEG11_OMe)]—C—NH2 [Compound 292] | > 100
13 | Isovaleric Acid-E-T-H-[Dpa]-P—C—I-[Lys(PEG12_C18_Diacid)]-[bhPhe]-[(D)Lys(PEG11_OMe)]—C—NH2 [Compound 293] | > 100
14 | Isovaleric Acid-E-T-H-[Dpa]-P—C—I-[Lys(1PEG2_1PEG2_Ahx_C18_Diacid)]-[bhPhe]-[(D)Lys]-[Pen]-NH2 [Compound 280] | 24.3
15 | Isovaleric Acid-E-T-H—F—P—C—I-[Lys(IsoGlu_C18_Diacid)]-F-E-P—R—S—K-G-C—K—NH2 [Compound 222] | > 100
16 | Isovaleric Acid-E-T-H-[Dpa]-P—C—I-[Lys(1PEG2_1PEG2_IsoGlu_C12_Diacid)]-[bhPhe]-[(D)Lys]-C—NH2 [Compound 234] | > 100
17 | Isovaleric Acid-E-T-H—F—P—C—I-[Lys(1PEG2_1PEG2_IsoGlu_C18_Diacid)]-F-E-P—R—S—K-G-C—NH2 [Compound 206] | > 100
18 | Isovaleric Acid-[Glu_OMe]-T-H-[Dpa]-P—C—I-[Lys(1PEG2_1PEG2_Ahx_C18_Diacid)]-[bhPhe]-[(D)Lys]-C—NH2 [Compound 277] | 11.7
19 | Isovaleric Acid-E-T-H-[Dpa]-P—C—I-[Lys(1PEG2_1PEG2_IsoGlu_C18_Diacid)]-[bhPhe]-[(D)Lys]-[Pen]-NH2 [Compound 281] | > 100
20 | Isovaleric Acid-E-T-H—F—P—C—I-[Lys(Ahx_Palm)]-F-E-P—R—S—K-G-C—K—NH2 [Compound 223] | 0.7
21 | Isovaleric Acid-E-T-H—F—P—C—I-[Lys(IsoGlu_Palm)]-F-E-P—R—S—K-G-[Pen]-K—NH2 [Compound 224] | 2.6
22 | Isovaleric Acid-E-T-H—F—P—C—I-[Lys(1PEG2_1PEG2_Ahx_C18_Diacid)]-F-E-P—R—S—K-G-C—K—NH2 [Compound 221] | > 100
23 | Isovaleric Acid-E-T-H-[Dpa]-P—C—I-[Lys(PEG12_C16_Diacid)]-[bhPhe]-[(D)Lys]-C—NH2 [Compound 265] | 23.1
24 | Isovaleric Acid-E-T-H-[Dpa]-P-[Cys]-I-[Lys(2Peg11′_IsoGlu_C18)]-[bhPhe]-[(D)Lys]-[Cys]-NH2 [Compound 112] | 0.52
25 | Isovaleric Acid-E-T-H-[Dpa]-P—C—I-[Lys(1PEG2_1PEG2_1PEG2_C18_Diacid)]-[bhPhe]-[(D)Lys]-C—NH2 [Compound 254] | > 33
26 | Isovaleric Acid-E-T-H-[Dpa]-P—C—I-[Lys(PEG12_IsoGlu_Palm)]-[bhPhe]-[(D)Lys(PEG11_OMe)]—C—NH2 [Compound 291] | > 100
27 | Isovaleric Acid-E-T-H-[Dpa]-P—C—I-[Lys(1PEG2_1PEG2_IsoGlu_C14_Diacid)]-[bhPhe]-[(D)Lys]-C—NH2 [Compound 233] | > 100
